Assay results: patent US9481676B2, “Azepino[4,5-B]indoles and methods of use” (Medivation Technologies, Inc., priority 2008, dated 2016)

Tests used:
[1] = target: T1, human recombinant adrenergic α2B receptor (Homo sapiens, UniProt P18089); test: Adrenergic alpha2B radioligand binding ([3H]Rauwolscine); conditions: compound at 1 μM; read-out: Adrenergic (1 μM) α2B, percent inhibition of specific binding
T1 construct: expressed in transfected cells; host or cells: CHO-K1 cells
T1 sequence (P18089 1-450): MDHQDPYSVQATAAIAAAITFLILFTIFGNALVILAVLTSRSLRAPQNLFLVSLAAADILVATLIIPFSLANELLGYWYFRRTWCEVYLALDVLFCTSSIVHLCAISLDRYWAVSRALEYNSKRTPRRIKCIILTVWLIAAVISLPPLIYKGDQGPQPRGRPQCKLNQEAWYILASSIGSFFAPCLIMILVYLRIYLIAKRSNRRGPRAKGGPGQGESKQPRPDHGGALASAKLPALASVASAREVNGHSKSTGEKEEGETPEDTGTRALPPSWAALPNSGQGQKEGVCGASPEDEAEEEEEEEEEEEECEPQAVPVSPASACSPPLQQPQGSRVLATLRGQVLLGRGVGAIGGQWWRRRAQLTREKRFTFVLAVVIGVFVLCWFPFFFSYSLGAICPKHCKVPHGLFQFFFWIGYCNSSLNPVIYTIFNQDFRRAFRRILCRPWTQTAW
Description: To evaluate in radioligand binding assays the activity of compounds of the invention, human recombinant adrenergic α2B receptor expressed in Chinese hamster ovary (CHO-K1) cells (Uhlen S et al. Eur J. Pharmacol. 343(1):93, 1998) in a modified Tris-HCl buffer (50 mM Tris-HCl, pH 7.4, 12.5 mM MgCl2, 1 mM EDTA, 0.2% BSA) was used. Compounds of the invention were incubated with 2.5 nM [^3H]Rauwolscine for 60 min. at 25° C. Non-specific binding was estimated in the presence of 10 μM Prozosin. Receptor proteins were filtered and washed, the filters were then counted to determine [^3H]Rauwolscine specifically bound. Compounds were screened at 1 μM or lower, using 1% DMSO as vehicle. Biochemical assay results are presented as the percent inhibition of specific binding in Table 5.

[2] = target: T2, human recombinant serotonin (5-Hydroxytryptamine) 5-HT2A receptor (Homo sapiens, UniProt P28223); test: Serotonin 5-HT2A radioligand binding ([3H]Ketanserin); conditions: compound at 1 μM; read-out: Serotonin (1 μM) 5-HT2A, percent inhibition of specific binding
T2 construct: expressed in transfected cells; host or cells: CHO-K1 cells
Procedure, shortened: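 Percent inhibition of specific [3H]ketanserin (0.5 nM) binding, filtration read-out, with compounds at ≤1 μM (1% DMSO vehicle). Receptor source: recombinant human 5-HT2A in CHO-K1 cells, 50 mM Tris-HCl pH 7.4, 60 min, 25 °C; 1 μM mianserin gives nonspecific binding.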

[3] = target: T3, human recombinant adrenergic α1D receptor (Homo sapiens, UniProt P25100); test: Adrenergic alpha1D radioligand binding ([3H]Prozosin); conditions: compound at 1 μM; read-out: Adrenergic (1 μM) α1D, percent inhibition of specific binding
T3 construct: expressed in transfected cells; host or cells: HEK-293 cells
T3 sequence (P25100 1-572): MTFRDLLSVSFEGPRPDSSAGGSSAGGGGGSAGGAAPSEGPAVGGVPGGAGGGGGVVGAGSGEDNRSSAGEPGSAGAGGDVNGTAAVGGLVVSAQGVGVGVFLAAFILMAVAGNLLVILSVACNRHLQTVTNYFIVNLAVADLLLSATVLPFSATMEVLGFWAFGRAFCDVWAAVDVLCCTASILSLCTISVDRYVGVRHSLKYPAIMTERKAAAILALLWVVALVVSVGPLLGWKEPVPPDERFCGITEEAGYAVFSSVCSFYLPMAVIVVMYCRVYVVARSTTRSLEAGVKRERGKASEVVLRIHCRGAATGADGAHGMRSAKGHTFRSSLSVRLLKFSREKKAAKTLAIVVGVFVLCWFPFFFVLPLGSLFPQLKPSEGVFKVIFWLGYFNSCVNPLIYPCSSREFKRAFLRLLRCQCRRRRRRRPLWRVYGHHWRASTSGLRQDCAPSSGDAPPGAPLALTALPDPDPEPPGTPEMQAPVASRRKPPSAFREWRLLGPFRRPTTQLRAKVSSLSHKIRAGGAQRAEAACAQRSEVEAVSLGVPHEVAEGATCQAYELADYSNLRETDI
Description: To evaluate in radioligand binding assays the activity of compounds of the invention, human recombinant adrenergic α1D receptor expressed in human embryonic kidney (HEK-293) cells (Kenny, B. A. et al. Br. J. Pharmacol. 115(6):981, 1995) in a 50 mM Tris-HCl buffer, pH 7.4, was used. Compounds of invention were incubated with 0.6 nM [^3H]Prozosin for 60 min. at 25° C. Non-specific binding was estimated in the presence of 10 μM phentolamine. Receptor proteins were filtered and washed, the filters were then counted to determine [^3H]Prozosin specifically bound. Compounds were screened at 1 μM or lower, using 1% DMSO as vehicle. Biochemical assay results are presented as the percent inhibition of specific binding in Table 5.

T2 sequence (P28223 whole entry): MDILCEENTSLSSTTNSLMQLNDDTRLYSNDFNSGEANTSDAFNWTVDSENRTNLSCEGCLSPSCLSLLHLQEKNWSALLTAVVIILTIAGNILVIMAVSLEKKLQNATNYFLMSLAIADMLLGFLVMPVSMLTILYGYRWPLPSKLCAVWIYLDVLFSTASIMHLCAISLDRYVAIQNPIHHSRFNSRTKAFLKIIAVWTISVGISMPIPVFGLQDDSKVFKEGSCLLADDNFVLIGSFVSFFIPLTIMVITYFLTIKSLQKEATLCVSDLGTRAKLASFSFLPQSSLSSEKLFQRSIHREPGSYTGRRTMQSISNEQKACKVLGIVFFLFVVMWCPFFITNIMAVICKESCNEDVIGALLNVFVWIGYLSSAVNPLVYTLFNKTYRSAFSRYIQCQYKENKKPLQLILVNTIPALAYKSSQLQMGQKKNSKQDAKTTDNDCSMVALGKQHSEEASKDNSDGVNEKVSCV

SMILES: COc1ccc(C(O)Cn2c3c(c4cc(Cl)ccc42)CCN(C)CC3)cc1 (stereo not drawn) [Compound No. 47, 2-(9-chloro-2,3,4,5-tetrahydro-3-methylazepino[4,5-b]indol-6(1H)-yl)-1-(4-methoxyphenyl)ethanol]
- inhibition at 1 µM [1]: 105%
- inhibition at 1 µM [2]: 99%
- inhibition at 1 µM [3]: 97%

SMILES: COc1ccc(C(O)Cn2c3c(c4cc(C)ccc42)CCN(C)CC3)cc1 (stereo not drawn) [Compound No. 48, 2-(2,3,4,5-tetrahydro-3,9-dimethylazepino[4,5-b]indol-6(1H)-yl)-1-(4-methoxyphenyl) ethanol]
- inhibition at 1 µM [1]: 103%
- inhibition at 1 µM [2]: 97%
- inhibition at 1 µM [3]: 95%

SMILES: COc1ccc(C(O)Cn2c3c(c4cc(Cl)ccc42)CCN(C)CC3)c(F)c1 (stereo not drawn) [Compound No. 49, 2-(9-chloro-2,3,4,5-tetrahydro-3-methylazepino[4,5-b]indol-6(1H)-yl)-1-(2-fluoro-4-methoxyphenyl) ethanol]
- inhibition at 1 µM [1]: 106%
- inhibition at 1 µM [2]: 97%
- inhibition at 1 µM [3]: 71%

SMILES: COc1ccc(C(O)Cn2c3c(c4cc(C)ccc42)CCN(C)CC3)c(F)c1 (stereo not drawn) [Compound No. 50, 1-(2-fluoro-4-methoxyphenyl)-2-(2,3,4,5-tetrahydro-3,9-dimethylazepino[4,5-b]indol-6(1H)-yl)ethanol]
- inhibition at 1 µM [1]: 102%
- inhibition at 1 µM [2]: 98%
- inhibition at 1 µM [3]: 84%

SMILES: CN1CCc2c(n(CC(O)c3ccc(F)cc3)c3ccc(Cl)cc23)CC1 (stereo not drawn) [Compound No. 51, 2-(9-chloro-2,3,4,5-tetrahydro-3-methylazepino[4,5-b]indol-6(1H)-yl)-1-(4-fluorophenyl) ethanol]
- inhibition at 1 µM [1]: 103%
- inhibition at 1 µM [2]: 97%
- inhibition at 1 µM [3]: 85%

SMILES: Cc1ccc2c(c1)c1c(n2CC(O)c2ccc(F)cc2)CCN(C)CC1 (stereo not drawn) [Compound No. 52, 1-(4-fluorophenyl)-2-(2,3,4,5-tetrahydro-3,9-dimethylazepino[4,5-b]indol-6(1H)-yl)ethanol]
- inhibition at 1 µM [1]: 103%
- inhibition at 1 µM [2]: 97%
- inhibition at 1 µM [3]: 91%

SMILES: CN1CCc2c(n(CC(=O)N3CCCC3)c3ccc(Cl)cc23)CC1 [Compound No. 53, 2-(9-chloro-2,3,4,5-tetrahydro-3-methylazepino[4,5-b]indol-6(1H)-yl)-1-(pyrrolidin-1-yl)ethanone]
- inhibition at 1 µM [1]: 3%
- inhibition at 1 µM [2]: 41%
- inhibition at 1 µM [3]: 13%

SMILES: Cc1ccc2c(c1)c1c(n2CC(=O)NC(C)C)CCN(C)CC1 [Compound No. 54, 2-(2,3,4,5-tetrahydro-3,9-dimethylazepino[4,5-b]indol-6(1H)-yl)-N-isopropylacetamide]
- inhibition at 1 µM [1]: 1%
- inhibition at 1 µM [2]: 1%
- inhibition at 1 µM [3]: -1%

SMILES: Cc1ccc2c(c1)c1c(n2CC(=O)OC2CCCC2)CCN(C)CC1 [Compound No. 55, Cyclopentyl-2-(2,3,4,5-tetrahydro-3,9-dimethylazepino[4,5-b]indol-6(1H)-yl)acetate]
- inhibition at 1 µM [1]: 7%
- inhibition at 1 µM [2]: -2%
- inhibition at 1 µM [3]: 8%

SMILES: CN1CCc2c(n(CCc3ccccc3)c3ccc(Cl)cc23)CC1 [Compound No. 56, 9-chloro-1,2,3,4,5,6-hexahydro-3-methyl-6-phenethylazepino[4,5-b]indole]
- inhibition at 1 µM [1]: 91%
- inhibition at 1 µM [2]: 97%
- inhibition at 1 µM [3]: 83%

SMILES: CN1CCc2c(n(CC(=O)N3CCCCC3)c3ccc(Cl)cc23)CC1 [Compound No. 57, 2-(9-chloro-2,3,4,5-tetrahydro-3-methylazepino[4,5-b]indol-6(1H)-yl)-1-(piperidin-1-yl)ethanone]
- inhibition at 1 µM [1]: 87%
- inhibition at 1 µM [2]: 10%
- inhibition at 1 µM [3]: -7%

SMILES: CN1CCc2c(n(CC(O)c3ccc(F)c(F)c3)c3ccc(Cl)cc23)CC1 (stereo not drawn) [Compound No. 58, 2-(9-chloro-2,3,4,5-tetrahydro-3-methylazepino[4,5-b]indol-6(1H)-yl)-1-(3,4-difluorophenyl)ethanol]
- inhibition at 1 µM [1]: 10%
- inhibition at 1 µM [2]: 100%
- inhibition at 1 µM [3]: 88%

SMILES: Cc1ccc2c(c1)c1c(n2CC(O)c2ccc(F)cc2F)CCN(C)CC1 (stereo not drawn) [Compound No. 59, 1-(2,4-difluorophenyl)-2-(2,3,4,5-tetrahydro-3,9-dimethylazepino[4,5-b]indol-6(1H)-yl)ethanol]
- inhibition at 1 µM [1]: 9%
- inhibition at 1 µM [2]: 93%
- inhibition at 1 µM [3]: 73%

SMILES: CN1CCc2c(n(CC(=O)N3CCOCC3)c3ccc(Cl)cc23)CC1 [Compound No. 60, 2-(9-chloro-2,3,4,5-tetrahydro-3-methylazepino[4,5-b]indol-6(1H)-yl)-1-morpholinoethanone]
- inhibition at 1 µM [1]: 53%
- inhibition at 1 µM [2]: -7%
- inhibition at 1 µM [3]: -1%

SMILES: CN1CCc2c(n(CCc3ccccc3F)c3ccc(Cl)cc23)CC1 [Compound No. 61, 6-(2-fluorophenethyl)-9-chloro-1,2,3,4,5,6-hexahydro-3-methylazepino[4,5-b]indole]
- inhibition at 1 µM [1]: 103%
- inhibition at 1 µM [2]: 43%
- inhibition at 1 µM [3]: -5%

SMILES: Cc1ccc2c(c1)c1c(n2CCc2ccccc2)CCN(C)CC1 [Compound No. 62, 1,2,3,4,5,6-hexahydro-3,9-dimethyl-6-phenethylazepino[4,5-b]indole]
- inhibition at 1 µM [1]: 98%
- inhibition at 1 µM [2]: 12%
- inhibition at 1 µM [3]: 12%

SMILES: Cc1ccc2c(c1)c1c(n2CCc2ccccc2F)CCN(C)CC1 [Compound No. 63, 6-(2-fluorophenethyl)-1,2,3,4,5,6-hexahydro-3,9-dimethylazepino[4,5-b]indole]
- inhibition at 1 µM [1]: 73%
- inhibition at 1 µM [2]: 91%
- inhibition at 1 µM [3]: 77%

SMILES: COc1ccc(C(O)Cn2c3c(c4cc(Cl)ccc42)CCN(C)CC3)cc1F (stereo not drawn) [Compound No. 67, 2-(9-chloro-2,3,4,5-tetrahydro-3-methylazepino[4,5-b]indol-6(1H)-yl)-1-(3-fluoro-4-methoxyphenyl) ethanol]
- inhibition at 1 µM [1]: 99%
- inhibition at 1 µM [2]: 100%
- inhibition at 1 µM [3]: 90%

SMILES: COc1ccc(C(O)Cn2c3c(c4cc(C)ccc42)CCN(C)CC3)cc1F (stereo not drawn) [Compound No. 68, 1-(3-fluoro-4-methoxyphenyl)-2-(2,3,4,5-tetrahydro-3,9-dimethylazepino[4,5-b]indol-6(1H)-yl)ethanol]
- inhibition at 1 µM [1]: 100%
- inhibition at 1 µM [2]: 99%
- inhibition at 1 µM [3]: 93%

SMILES: Cc1ccc2c(c1)c1c(n2CCc2ccccc2Cl)CCN(C)CC1 [Compound No. 69, 6-(2-chlorophenethyl)-1,2,3,4,5,6-hexahydro-3,9-dimethylazepino[4,5-b]indole]
- inhibition at 1 µM [1]: -4%
- inhibition at 1 µM [2]: 52%
- inhibition at 1 µM [3]: -5%

SMILES: CN1CCc2c(n(CC(=O)N3CCNCC3)c3ccc(Cl)cc23)CC1 [Compound No. 72, 2-(9-chloro-2,3,4,5-tetrahydro-3-methylazepino[4,5-b]indol-6(1H)-yl)-1-(piperazin-1-yl)ethanone]
- inhibition at 1 µM [1]: 7%
- inhibition at 1 µM [2]: 23%
- inhibition at 1 µM [3]: 17%
